Counter-ions that a name gives are not always drawn.
What was measured:
[1] = molecular target: T1, Dopamine (DA) uptake into rat brain synaptosome (striatum) (Rattus norvegicus, UniProt P23977); experiment: Inhibitory activity on dopamine (DA) uptake into rat brain synaptosome; assay type: biochemical; settings: tritium labeled DA 2 nM uptake, 10 min at 37° C., read-out: 50% inhibitory concentration
T1 construct: used as crude synaptosome fraction; from tissue; host or cells: rat (male Wistar) striatum, crude synaptosome fraction
T1 sequence (P23977 whole entry): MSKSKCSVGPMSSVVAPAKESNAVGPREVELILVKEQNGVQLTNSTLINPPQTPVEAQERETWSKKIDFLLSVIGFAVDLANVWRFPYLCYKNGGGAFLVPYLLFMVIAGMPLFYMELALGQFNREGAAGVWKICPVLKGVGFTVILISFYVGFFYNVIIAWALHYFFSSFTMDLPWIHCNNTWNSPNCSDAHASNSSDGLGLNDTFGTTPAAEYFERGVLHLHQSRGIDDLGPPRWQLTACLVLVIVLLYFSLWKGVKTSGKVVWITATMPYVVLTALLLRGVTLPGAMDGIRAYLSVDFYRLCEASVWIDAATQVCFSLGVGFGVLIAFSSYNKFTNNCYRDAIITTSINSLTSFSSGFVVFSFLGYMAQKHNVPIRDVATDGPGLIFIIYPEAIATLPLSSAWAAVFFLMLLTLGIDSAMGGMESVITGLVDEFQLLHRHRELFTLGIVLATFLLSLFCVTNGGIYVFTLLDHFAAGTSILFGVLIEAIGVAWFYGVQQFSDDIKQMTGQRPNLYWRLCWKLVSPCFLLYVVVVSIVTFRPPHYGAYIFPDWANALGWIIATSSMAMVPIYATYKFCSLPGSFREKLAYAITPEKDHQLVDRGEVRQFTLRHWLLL
Description: Pharmacological Test 3 Evaluation of Inhibitory Activity of Test Compound on Dopamine (DA) into Rat Brain Synaptosome
(§1) Male Wistar rats were decapitated and the brains were removed and the striata were dissected. The separated striata were homogenized in 20 volumes as weight of 0.32 M sucrose solution by a Potter-type homogenizer. The homogenate was centrifuged at 1000 g at 4° C. for 10 minutes, and the supernatant was then centrifuged at 20000 g at 4° C. for 20 minutes. The pellet was resuspended in incubation buffer (20 mM HEPES buffer (pH 7.4)) containing 10 mM glucose, 145 mM sodium chloride, 4.5 mM potassium chloride, 1.2 mM magnesium chloride, and 1.5 mM calcium chloride) and used as crude synaptosome fraction.
(§2) The uptake reaction mixture was suspended in a final volume of 200 μl containing pargyline (final concentration of 10 μM) and sodium ascorbate (final concentration of 0.2 mg/ml) in each well of 96-well-round-bottom-plate.
(§3) Solvent, unlabeled DA, and serial diluted test compounds were added in each well, and synaptosome fraction of 1/10 volume of the final volume were added. After 10-min preincubation at 37° C., the uptake was initiated by the addition of tritium labeled DA solution (final concentration of 2 nM) at 37° C. The uptake was stopped after 10 minutes by filtration under vacuum through a 96-well glass fiber filter plate. After washing the filter with cold physiological saline and drying up, Microscint-0 (Perkin-Elmer) was added and remained radioactivity on the filter was measured.
(§4) The uptake activity with only solvent was determined as 100%, and the nonspecific uptake activity with unlabeled DA (final concentration of 10 μM) was determined as 0%. The 50% inhibitory concentrations were calculated based on the concentrations of the test compounds and their inhibitory activities.

[2] = molecular target: T2, Serotonin (5-HT) uptake into rat brain synaptosome (frontal cortex) (Rattus norvegicus, UniProt P31652); experiment: Inhibitory activity on serotonin (5-HT) uptake into rat brain synaptosome; assay type: biochemical; settings: tritium-labeled 5-HT 8 nM uptake, 10 min at 37° C., read-out: 50% inhibittory concentration
T2 construct: used as crude synaptosome fractions; from tissue; host or cells: rat (male Wistar) frontal cortex, crude synaptosome fraction
T2 sequence (P31652 whole entry): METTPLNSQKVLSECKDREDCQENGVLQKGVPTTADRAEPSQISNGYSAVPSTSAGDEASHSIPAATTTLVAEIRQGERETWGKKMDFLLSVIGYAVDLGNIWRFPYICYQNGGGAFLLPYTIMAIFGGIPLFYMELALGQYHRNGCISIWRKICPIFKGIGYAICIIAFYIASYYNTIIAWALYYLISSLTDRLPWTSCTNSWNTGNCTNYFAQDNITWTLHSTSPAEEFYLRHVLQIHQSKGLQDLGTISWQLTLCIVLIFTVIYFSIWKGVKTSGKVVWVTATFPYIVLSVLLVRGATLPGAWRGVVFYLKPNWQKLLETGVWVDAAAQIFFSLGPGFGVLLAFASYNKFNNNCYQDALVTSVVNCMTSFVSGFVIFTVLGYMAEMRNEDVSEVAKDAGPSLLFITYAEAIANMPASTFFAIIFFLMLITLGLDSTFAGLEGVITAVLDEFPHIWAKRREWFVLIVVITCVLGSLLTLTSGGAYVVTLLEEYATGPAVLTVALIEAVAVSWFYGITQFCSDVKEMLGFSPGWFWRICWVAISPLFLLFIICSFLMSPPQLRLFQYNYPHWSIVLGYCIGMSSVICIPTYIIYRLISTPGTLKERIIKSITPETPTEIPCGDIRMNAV
Description: Pharmacological Test 1 Evaluation of Inhibitory Activity of Test Compound on Serotonin (5-HT) Uptake into Rat Brain Synaptosome
as §1, with “frontal cortices” for “striata”, “fractions.” for “fraction.”
as §2
as §3, with “unlabeled 5-HT,” for “unlabeled DA,”, “After a 10 min” for “After 10-min”, “of tritium-labeled 5-HT” for “of tritium labeled DA”, “of 8” for “of 2”, “up, Microscint-O” for “up, Microscint-0”, “was added,” for “was added”
as §4, with “The total uptake activity” for “The uptake activity”, “with unlabeled 5-HT (final concentration” for “with unlabeled DA (final concentration”

[3] = molecular target: T3, Norepinephrine (NE) uptake into rat brain synaptosome (hippocampus) (Rattus norvegicus, UniProt Q63380); experiment: Inhibitory activity on norepinephrine (NE) uptake into rat brain synaptosome; assay type: biochemical; settings: tritium-labeled NE 12 nM uptake, 10 min at 37° C., read-out: 50% inhibitory concentration
T3 construct: used as crude synaptosome fraction; from tissue; host or cells: rat (male Wistar) hippocampus, crude synaptosome fraction
T3 sequence (Q63380 1-617): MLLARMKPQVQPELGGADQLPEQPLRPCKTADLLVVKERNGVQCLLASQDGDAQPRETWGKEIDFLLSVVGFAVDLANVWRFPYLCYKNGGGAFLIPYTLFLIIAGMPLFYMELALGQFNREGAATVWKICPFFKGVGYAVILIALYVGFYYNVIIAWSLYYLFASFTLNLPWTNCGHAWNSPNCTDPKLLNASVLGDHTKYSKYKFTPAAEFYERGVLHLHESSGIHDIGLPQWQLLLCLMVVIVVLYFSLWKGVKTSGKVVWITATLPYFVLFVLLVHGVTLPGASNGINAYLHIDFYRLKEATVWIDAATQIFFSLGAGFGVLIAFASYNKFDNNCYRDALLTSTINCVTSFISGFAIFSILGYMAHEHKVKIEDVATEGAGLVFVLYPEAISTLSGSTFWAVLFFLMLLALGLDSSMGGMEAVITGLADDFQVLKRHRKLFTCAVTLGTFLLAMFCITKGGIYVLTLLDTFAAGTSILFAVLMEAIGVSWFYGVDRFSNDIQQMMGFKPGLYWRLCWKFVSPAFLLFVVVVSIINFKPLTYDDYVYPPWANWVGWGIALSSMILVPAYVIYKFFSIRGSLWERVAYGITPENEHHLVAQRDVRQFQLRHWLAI
Description: Pharmacological Test 2 Evaluation of Inhibitory Activity of Test Compound on Norepinephrine (NE) Uptake into Rat Brain Synaptosome
as §1, with “hippocampi” for “striata”
The uptake reaction mixture was suspended in final volume of 200 μl containing pargyline (final concentration of 10 μM) and sodium ascorbate (final concentration of 0.2 mg/ml) in each well of 96-well-round-bottom-plate.
as §3, with “unlabeled NE,” for “unlabeled DA,”, “added to” for “added in”, “After 10 minutes” for “After 10-min”, “of tritium-labeled NE” for “of tritium labeled DA”, “of 12” for “of 2”, “was added,” for “was added”
as §4, with “The total uptake activity” for “The uptake activity”, “with unlabeled NE (final concentration” for “with unlabeled DA (final concentration”

melting point [°C] | IC50 [1] [nM] | IC50 [2] [nM] | IC50 [3] [nM] | SMILES
194 to 195 | 45 | 3 | 0.4 | CS(=O)(=O)O.CS(=O)(=O)O.Fc1ccc(N(c2cccnc2)[C@H]2CCNC2)cc1Cl [Example 7, (3-chloro-4-fluorophenyl) pyridin-3-yl-(S)-pyrrolidin-3-ylamine dimethanesulfonate]
135 to 138 | – | – | – | Clc1ccc(N(c2ccccn2)[C@H]2CCNC2)cc1Cl (as salt: hydrochloride) [Example 188]
115 to 117 | 4.8 | 1.2 | 0.7 | Fc1ccc(N(c2ccc(-c3cnco3)cc2)[C@H]2CCNC2)cc1Cl [Example 90]
212 to 215 | – | – | – | Fc1ccc(N(c2ccc(N3CCNCC3)cn2)[C@H]2CCNC2)cc1Cl (as salt: hydrochloride) [Example 200]
– | 47.1 | 1 | 0.8 | Clc1ccc(N(c2cnccn2)[C@H]2CCNC2)cc1Cl [Example 963]
– | 9.6 | 2.8 | 0.7 | Fc1ccc(N(c2ccc(Cl)c(Cl)c2)[C@H]2CCNC2)nc1 [Example 961]
96 to 98 | – | – | – | Fc1ccc(N(c2ccc(Cl)c(Cl)c2)[C@H]2CCNC2)nc1 (as salt: hydrochloride) [Example 961]

More lines, now with the values behind:

SMILES | melting point [°C] | IC50 [1] [nM] | IC50 [2] [nM] | IC50 [3] [nM]
Fc1ccc(N(c2ccc3ccsc3c2)[C@H]2CCNC2)cc1 (as salt: fumarate) [Example 114] | 131.6 to 133.3 | – | – | –
Fc1ccc(N(c2nccs2)[C@H]2CCNC2)cc1Cl (as salt: fumarate) [Example 131] | 128 to 129.9 | – | – | –
Fc1ccc(N(c2ccc(Cl)nc2)[C@H]2CCNC2)cc1Cl (as salt: fumarate) [Example 244] | 136 to 137 | – | – | –
c1ccc(N(c2ccc3sccc3c2)[C@H]2CCNC2)cc1 (as salt: hydrochloride) [Example 116] | 158 to 160 | – | – | –
Fc1ccc(N(c2ccccn2)[C@H]2CCNC2)cc1Cl (as salt: fumarate) [Example 154] | 152.4 to 154.4 | – | – | –
N#Cc1ccc(N(c2ccc(F)c(Cl)c2)[C@H]2CCNC2)cc1 (as salt: fumarate) [Example 73] | 174 to 175 | – | – | –
Fc1ccc(N(c2ccsc2)[C@H]2CCNC2)cc1Cl (as salt: fumarate) [Example 278] | 135 to 136 | – | – | –
Clc1ccc(N(c2cnccn2)[C@H]2CCNC2)cc1Cl (as salt: hydrochloride) [Example 963] | 120 to 124 | – | – | –
c1ccc(N(c2ccc3sccc3n2)[C@H]2CCNC2)cc1 (as salt: hydrochloride) [Example 934] | 241.5 to 243.5 | – | – | –
CCN1CCN(c2ccc(N(c3ccc(F)c(Cl)c3)[C@H]3CCNC3)nc2)CC1 (as salt: hydrochloride) [Example 201] | 208 to 211 | – | – | –
Clc1ccc(N(c2ccncc2)[C@H]2CCNC2)cc1Cl (as salt: salt) [Example 273] | 229 to 231 | – | – | –
Fc1cccc(N(c2ccc(C(F)(F)F)cc2)[C@H]2CCNC2)c1.O=C(O)/C=C/C(=O)O.O=C(O)/C=C/C(=O)O | 144 to 146.2 | – | – | –
Fc1ccc(N(c2ccccc2)[C@H]2CCNC2)cc1 (as salt: fumarate) [Example 20] | 143 to 145 | – | – | –
Cc1ccc(N(c2ccccc2)[C@H]2CCNC2)cc1 (as salt: fumarate) [Example 22] | 141.7 to 143.8 | – | – | –
Fc1ccc(N(c2ccc3cnsc3c2)[C@H]2CCNC2)cc1Cl (as salt: hydrochloride) [Example 930] | 150 to 156 | – | – | –
CSc1ccc(N(c2ccccc2)[C@H]2CCNC2)cc1 (as salt: fumarate) [Example 19] | 152.9 to 155.5 | – | – | –
Clc1ccc(N(c2cccnc2)[C@H]2CCNC2)cc1Cl (as salt: hydrochloride) [Example 242] | 108 to 110 | – | – | –

Reference: patent US10000450B2, “N,N-substituted 3-aminopyrrolidine compounds useful as monoamines reuptake inhibitors” (OTSUKA PHARMACEUTICAL CO., LTD., priority 2005, dated 2018)
